# Data: ChEMBL document CHEMBL1201862, “PubChem BioAssay data set” (2004)
#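 These data come from cells grown in 96-well plates and exposed to compound for 48 hours at five concentrations. At the GI50, growth is halved.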 Active and inactive are the calls of the source. Rule as the data show it: active = GI50 up to about 1.1 µM and inactive = higher.
# Tests used:
# Test in all cases: NCI-60 cell line screen, 48 h
# 786-0 = system: 786-0
# A498 = system: A498
# A549 = system: A549
# ACHN = system: ACHN
# CAKI-1 = system: CAKI-1
# CCRF-CEM = system: CCRF-CEM
# COLO 205 = system: COLO 205
# DLD-1 = system: DLD-1
# DMS-114 = system: DMS-114
# DMS-273 = system: DMS-273
# EKVX = system: EKVX
# HCC 2998 = system: HCC 2998
# HCT-116 = system: HCT-116
# HCT-15 = system: HCT-15
# HL-60 = system: HL-60
# HOP-18 = system: HOP-18
# HOP-62 = system: HOP-62
# HOP-92 = system: HOP-92
# HT-29 = system: HT-29
# IGROV-1 = system: IGROV-1
# K562 = system: K562
# KM-20L2 = system: KM-20L2
# LOX IMVI = system: LOX IMVI
# LXFL 529 = system: LXFL 529
# M14 = system: M14
# M19-MEL = system: M19-MEL
# MOLT-4 = system: MOLT-4
# Malme-3M = system: Malme-3M
# NCI-H226 = system: NCI-H226
# NCI-H23 = system: NCI-H23
# NCI-H522 = system: NCI-H522
# OVCAR-3 = system: OVCAR-3
# OVCAR-4 = system: OVCAR-4
# OVCAR-5 = system: OVCAR-5
# OVCAR-8 = system: OVCAR-8
# RXF 393 = system: RXF 393
# SF-268 = system: SF-268
# SF-295 = system: SF-295
# SF-539 = system: SF-539
# SK-MEL-28 = system: SK-MEL-28
# SK-MEL-2 = system: SK-MEL-2
# SK-MEL-5 = system: SK-MEL-5
# SK-OV-3 = system: SK-OV-3
# SN12C = system: SN12C
# SNB-19 = system: SNB-19
# SNB-75 = system: SNB-75
# SNB-78 = system: SNB-78
# SR = system: SR
# SW-620 = system: SW-620
# TK-10 = system: TK-10
# U-251 = system: U-251
# UACC-257 = system: UACC-257
# UACC-62 = system: UACC-62
# UO-31 = system: UO-31
# KM12 = system: KM12
# NCI-H460 = system: NCI-H460
# XF498 = system: XF498
structure (smiles),measurement,setting,value
COC(=O)C(=O)Cc1nc2ccccc2s1,GI50,786-0,> 100 µM (inactive)
same,GI50,A498,> 100 µM (inactive)
same,GI50,A549,> 100 µM (inactive)
same,GI50,ACHN,> 100 µM (inactive)
same,GI50,CAKI-1,> 100 µM (inactive)
same,GI50,CCRF-CEM,> 100 µM (inactive)
same,GI50,COLO 205,> 100 µM (inactive)
same,GI50,DLD-1,> 100 µM (inactive)
same,GI50,DMS-114,> 100 µM (inactive)
same,GI50,DMS-273,> 100 µM (inactive)
same,GI50,EKVX,> 100 µM (inactive)
same,GI50,HCC 2998,> 100 µM (inactive)
same,GI50,HCT-116,> 100 µM (inactive)
same,GI50,HCT-15,> 100 µM
same,GI50,HL-60,> 100 µM (inactive)
same,GI50,HOP-18,> 100 µM (inactive)
same,GI50,HOP-62,> 100 µM (inactive)
same,GI50,HOP-92,> 100 µM (inactive)
same,GI50,HT-29,> 100 µM (inactive)
same,GI50,IGROV-1,> 100 µM (inactive)
same,GI50,K562,> 100 µM (inactive)
same,GI50,KM-20L2,> 100 µM (inactive)
same,GI50,LOX IMVI,> 100 µM (inactive)
same,GI50,LXFL 529,> 100 µM (inactive)
same,GI50,M14,> 100 µM (inactive)
same,GI50,M19-MEL,> 100 µM (inactive)
same,GI50,MOLT-4,> 100 µM (inactive)
same,GI50,Malme-3M,> 100 µM (inactive)
same,GI50,NCI-H226,> 100 µM (inactive)
same,GI50,NCI-H23,> 100 µM (inactive)
same,GI50,NCI-H522,> 100 µM (inactive)
same,GI50,OVCAR-3,> 100 µM (inactive)
same,GI50,OVCAR-4,> 100 µM (inactive)
same,GI50,OVCAR-5,> 100 µM (inactive)
same,GI50,OVCAR-8,> 100 µM (inactive)
same,GI50,RXF 393,> 100 µM (inactive)
same,GI50,SF-268,> 100 µM (inactive)
same,GI50,SF-295,> 100 µM (inactive)
same,GI50,SF-539,> 100 µM (inactive)
same,GI50,SK-MEL-28,> 100 µM (inactive)
same,GI50,SK-MEL-2,> 100 µM (inactive)
same,GI50,SK-MEL-5,> 100 µM (inactive)
same,GI50,SK-OV-3,> 100 µM (inactive)
same,GI50,SN12C,> 100 µM (inactive)
same,GI50,SNB-19,> 100 µM (inactive)
same,GI50,SNB-75,> 100 µM (inactive)
same,GI50,SNB-78,> 100 µM (inactive)
same,GI50,SR,> 100 µM (inactive)
same,GI50,SW-620,> 100 µM (inactive)
same,GI50,TK-10,> 100 µM (inactive)
same,GI50,U-251,> 100 µM (inactive)
same,GI50,UACC-257,> 100 µM (inactive)
same,GI50,UACC-62,> 100 µM (inactive)
same,GI50,UO-31,> 100 µM (inactive)
CC(=O)CC(=O)CCC(=O)O [SUCCINYLACETONE],GI50,A549,> 100 µM (inactive)
same,GI50,ACHN,> 100 µM (inactive)
same,GI50,CAKI-1,> 100 µM (inactive)
same,GI50,COLO 205,> 100 µM (inactive)
same,GI50,DLD-1,> 100 µM (inactive)
same,GI50,DMS-114,> 100 µM (inactive)
same,GI50,DMS-273,> 100 µM (inactive)
same,GI50,EKVX,> 100 µM (inactive)
same,GI50,HCC 2998,> 100 µM (inactive)
same,GI50,HCT-116,> 100 µM (inactive)
same,GI50,HCT-15,> 100 µM
same,GI50,HL-60,> 100 µM (inactive)
same,GI50,HOP-18,> 100 µM (inactive)
same,GI50,HOP-92,< 0.01 µM (active)
same,GI50,HT-29,> 100 µM (inactive)
same,GI50,IGROV-1,> 100 µM (inactive)
same,GI50,K562,> 100 µM (inactive)
same,GI50,KM-20L2,> 100 µM (inactive)
same,GI50,KM12,47.4 µM (inactive)
same,GI50,LOX IMVI,> 100 µM (inactive)
same,GI50,M14,> 100 µM (inactive)
same,GI50,M19-MEL,> 100 µM (inactive)
same,GI50,MOLT-4,57.3 µM (inactive)
same,GI50,Malme-3M,> 100 µM (inactive)
same,GI50,NCI-H226,> 100 µM (inactive)
same,GI50,NCI-H23,> 100 µM (inactive)
same,GI50,NCI-H460,> 100 µM (inactive)
same,GI50,NCI-H522,> 100 µM (inactive)
same,GI50,OVCAR-5,> 100 µM (inactive)
same,GI50,OVCAR-8,> 100 µM (inactive)
same,GI50,RXF 393,> 100 µM (inactive)
same,GI50,SF-268,> 100 µM (inactive)
same,GI50,SF-295,> 100 µM (inactive)
same,GI50,SF-539,> 100 µM (inactive)
same,GI50,SK-MEL-28,> 100 µM (inactive)
same,GI50,SK-MEL-2,> 100 µM (inactive)
same,GI50,SK-OV-3,> 100 µM (inactive)
same,GI50,SN12C,> 100 µM (inactive)
same,GI50,SNB-19,> 100 µM (inactive)
same,GI50,SNB-75,< 0.01 µM (active)
same,GI50,SNB-78,> 100 µM (inactive)
same,GI50,SR,> 100 µM (inactive)
same,GI50,SW-620,> 100 µM (inactive)
same,GI50,TK-10,> 100 µM (inactive)
same,GI50,U-251,> 100 µM (inactive)
same,GI50,UACC-257,> 100 µM (inactive)
same,GI50,UO-31,> 100 µM (inactive)
same,GI50,XF498,> 100 µM (inactive)
